Measured values: ChEMBL document CHEMBL5727896, “Aryldiazepine derivatives as RSV inhibitors” (2020)

Assay: n vitro cytoprotection assay: HEp-2 cells, (originally derived from tumors grown in irradiated-cortisonised weanling rats that had been injected with epidermoid carcinoma tissue from a person's larynx, but later found to be indistinguishable from HeLa cells by PCR DNA analysis), were used for the culturing of genotype A, “Long” strain RSV. Flasks were inoculated with RSV and viral stocks were collected once cytopathic effect (CPE) was greater than 90%. Viral stocks in 25% sucrose media were snap frozen using liquid nitrogen to increase viral stability. Viral stock titers were quantified by tissue culture infectious dose 50% (TCID50) using 8,000 cells per well and 3-fold viral dilutions across a 96-well plate, cultured for 4 days.Following extensive parameter testing, the final assay is run as follows: HEp-2 cells are seeded into the inner 60 wells of a 96-well plate at 8,000 cells per well in a volume of 50 using Growth Media (DMEM without phenol red, 1% L-Glut, 1% Penn/Strep, 1% nonessential amino acids, 10% FBS). 2-fold serial dilutions of control and test compounds are added to the wells in duplicate in a total volume of 25 μL. Viral stock is then added to the wells in a volume of 25 μL, bringing the total volume of each well to 100 μL. Each 96-well plate has a control column of 6 wells with cells and virus but no compound (negative control, max CPE), a column with cells but no compound or virus (positive control, minimum CPE), and a column with no cells or virus or compound (background plate/reagent control). The control wells with cells but no virus are given an additional 25 uL of growth media containing an equal quantity of sucrose as those wells receiving the viral stock in order to keep consistent in media and volume conditions. The outer wells of the plate are filled with 125 μL of growth media to act as a thermal and evaporative moat around the test wells. Following a 4-day incubation period, the plates are read using ATPlite (50 uL added per well), which quantifies the amount of ATP (a measure of cell health) present in each well. Assay plates are read using the Envision luminometer.

Row | Compound | EC50 [µM]
1 | O=C(N[C@H]1CN(c2ccccc2)c2ccccc2NC1=O)c1ccccc1 | > 5
2 | O=C1Nc2ccccc2N(c2ccccc2)C[C@@H]1Nc1nnc(-c2ncc(C3CC3)cc2N2CCOCC2)o1 | < 2
3 | NNC(=O)c1ncc(C(F)(F)F)cc1Cl | < 2
4 | NNC(=O)c1cn(-c2ccccn2)nc1N1CCOCC1 | 3.5
5 | NNC(=O)c1nc(-c2cccnc2)sc1N1CCOCC1 | < 2
6 | Cc1ccc(C(=O)NN)o1 | > 5
7 | O=C(Nc1ccccc1)N[C@H]1CN(c2ccccc2)c2ccccc2NC1=O | > 5
8 | COCCNc1cc(C(F)(F)F)cnc1-c1nnc(N[C@H]2CN(c3ccccc3)c3ccccc3NC2=O)o1 | > 5
9 | O=C1Nc2ccccc2N(c2ccccc2)C[C@@H]1Nc1nnc(-c2cn(C3CCCC3)nc2N2CCOCC2)o1 | < 2
10 | O=C1Nc2ccccc2N(c2ccccc2)C[C@@H]1Nc1nnc(-c2cccnc2N2CCOCC2)o1 | 3.5
11 | O=C1Nc2ccccc2N(c2ccccc2)C[C@@H]1Nc1nnc(-c2ccc(N3CCOCC3)cc2F)o1 | > 5
12 | O=C(NNC(=S)NC1C(=O)Nc2ccccc2N(c2ccccc2)C1=O)c1ccccc1 (stereo not given) | > 5
13 | O=C1Nc2ccccc2N(c2ccccc2)C[C@@H]1Nc1nc2ccccc2o1 | > 5
14 | O=C1Nc2ccccc2N(c2ccccc2)C[C@@H]1Nc1nnc(-c2nc(C3CC3)sc2N2CCOCC2)o1 | < 2
15 | O=C1Nc2ccccc2N(c2ccccc2)C[C@@H]1Nc1nnc(-c2ccccc2)o1 | > 5
16 | O=C(NC1C(=O)Nc2ccccc2N(c2ccccc2)C1=O)c1ccccc1 (stereo not given) | > 5
17 | O=C(Nc1ccccc1)NC1C(=O)Nc2ccccc2N(c2ccccc2)C1=O (stereo not given) | > 5
18 | O=C1Nc2ccccc2N(c2ccccc2)C[C@@H]1Nc1nnc(-c2ccc(F)cc2)o1 | > 5
19 | CCOC(=O)c1nc(C(F)(F)F)sc1N1CCOCC1 | < 2
20 | O=C1Nc2ccccc2N(c2cc(F)c(F)c(F)c2)C[C@@H]1Nc1nnc(-c2ncc(C(F)(F)F)cc2N2CCOCC2)o1 | > 5
